Numbering of substitutions follows the chain as printed. Numbers in names are those of the source. Entries after “also recorded” stand apart in the source; their conditions may differ.
B1: Q18M: lacI repressor point mutant in the DNA binding domain, residue 18 Q to M (protein, listed as Escherichia coli)
chain: MKPVTLYDVAEYAGVSYMTVSRVVNQASHVSAKTREKVEAAMAELNYIPNRVAQQLAGKQSLLIGVATSSLALHAPSQIVAAIKSRADQLGASVVVSMVERSGVEACKAAVHNLLAQRVSGLIINYPLDDQDAIAVEAACTNVPALFLDVSDQTPINSIIFSHEDGTRLGVEHLVALGHQQIALLAGPLSSVSARLRLAGWHKYLTRNQIQPIAEREGDWSAMSGFQQTMQMLNEGIVPTAMLVANDQMALGAMRAITESGLRVGADISVVGYDDTEDSSCYIPPLTTIKQDFRLLGQTSVDRLLQLSQGQAVKGNQLLPVSLVKRKTTLAPNTQTASPRALADSLMQLARQVSRLESGQ
B2: F161W: lacI repressor effector pocket point mutant, residue 161 F to W (protein, UniProt P03023 1-360, looked up, variant F161W)
Lactose operon repressor: B1 chain with M18Q, F161W

Tests used:
cells = conditions: CD-1, mouse
Protocol: Bioavailability of IPTG: Three CD-1 adult mice were gavaged with 25 μL of 1M IPTG per 10 g of body weight twice a day for 3 days. Animals were then sacrificed and major organs were harvested, mechanically homogenized, and steady state concentrations of IPTG in liver, kidney, skeletal muscle, and retina were determined using a beta-galacosidase assay^24. […] IPTG concentrations were tracked in various mouse tissues after a single 3-day IPTG gavage induction cycle. Data points represent mean+/−SD, n=3.

ARPE-19 cells = assay: Luciferase regulation assay in transfected ARPE-19 cells with and without IPTG; assay type: cell-based, human
Protocol: All gene regulation assays start by transiently transfecting the cell line of choice with the appropriate plasmid. Media is supplemented with effector of varying concentration in wells (IPTG for lacI repressor experiments and doxycycline for tet repressor experiments) and specific experimental conditions are typically grown side by side in triplicate. Experimental measurement times varied depending upon cell confluence but occurred 24 to 72 hours after transfection.
Cells were lysed with Reporter Lysis Buffer (Promega) and 5 μL of whole cell lysate was added to 45 μL of luciferase assay buffer (Promega) containing luciferin in 384 well optical bottom plates (Corning). Plates were immediately loaded into the Tecan M1000 and luciferase signal was measured for each well over time. Peak luciferase signal values were used for quantification. […]
The plasmid containing the cassette controlling luciferase was transfected into human retinal pigment epithelium (ARPE-19) cells and grown with and without 2.5 mM IPTG. We measured approximately 20% basal expression with a 3.5-fold induction (p<0.05) (FIG. 1D). […]
Point mutations introduced in the repressor can decrease leakiness, increase dynamic range, or change/alter the affinity for effector molecules in bacterial cells. […] These point mutations were introduced into the repressor and induction measured in ARPE-19 cells. […]

Molecule | gavage concentration of IPTG, fold less than concentrations toxic to cells (cells) | steady state tissue concentrations of IPTG, fold less than concentrations toxic to cells (cells; 3 days) | leakiness, dynamic range and maximal expression phenotype (in words) (ARPE-19 cells)
CC(C)SC1OC(CO)C(O)C(O)C1O [IPTG, isopropyl β-D-1-thiogalactopyranoside] | 50 fold | 500 fold | 
B1 |  |  | deceased leakiness at the expense of maximal expression; also recorded: decreased leakiness as well as the commensurate decreased dynamic range
B2 |  |  | decreased leakiness and increased dynamic range
